Reference: patent US7384639B2, “Methods of treating or preventing an infectious disease using an immunogenic conjugate of a gram-negative bacterial autoinducer molecule” (University of Rochester, priority 1998, dated 2008)

Key:
LasR = experiment: microbe, parasite or virus in culture; format: cell-based; conditions: Pseudomonas aeruginosa, read-out: concentration that stimulates half-maximal activity
Procedure: Positive clones were tested in a Pseudomonas aeruginosa bioassay. PAC-JP2 (bearing the lasI/rhII double deletion) produces no PAI-1 but retains the ability to produce LasR. When PAI-1 is added exogenously, it can bind to LasR and induce the transcription of lasI. Test samples containing 40 nM PAI-1 (the concentration that stimulates half-maximal activity in this assay) were preincubated at 37° C. with anti-PAI-1 monoclonal antibody (618.4). Control samples containing 40 nm PAI-1 were preincubated at 37° C. with an equal volume of PBS. Following preincubation, the samples were tested in a Pseudomonas aeruginosa bioassay using PAO-JP2 containing a plasmid with a lasI/LacZ fusion. When the bacteria reached on OD600 of 0.8-1.0, the samples were assayed for the production of β-galactosidase, which was expressed as Miller Units of activity.

[1] = system: lasI/lasZ transcriptional fusion (lasR); conditions: λI14-MG4 (pPCS1), Seed et al., 1995, cited from earlier work
lymphocytes = conditions: in vivo (so in the source); Telford et al., 1998; cited from earlier work
[2] = system: tumor necrosis factor and interleukin-12; conditions: Telford et al., 1998; cited from earlier work

CCCCCCCCCC(=O)CC(=O)NC1CCOC1=O [PAI-1, N-(3-oxo)-dodecanoyl-L-homoserine lactone]
EC50 (LasR): 40 nM
lowest PAI-1 concentration that activates the construct [1]: 10 pM
EC50 ([1]; read-out: PAI-1 concentration for half-maximal expression): 0.1 nM
effect on proliferation of lymphocytes (lymphocytes): inhibit the proliferation of lymphocytes
effect on expression of tumor necrosis factor and interleukin-12 [2]: downregulates expression
